In patent US11591341B2 (ALIGOS THERAPEUTICS, INC., priority 2019, dated 2023):

Test system: HBV
Experiment: HBV-DNA Antiviral Assay Using HepG2.117 Cells (intracellular HBV DNA by qPCR)
Assay type: cell-based, hepatitis B virus (genotype D)
Details: Hepatitis B virus, HepG2.117
Summary of the method: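 Endpoint: qPCR copy number of intracellular HBV DNA after 3-day compound exposure, with inhibition set relative to the 2% DMSO control. The cells were doxycycline-free HepG2.117 carrying a Tet-off genotype D genome, dosed at nine 4-fold dilutions. A duplicate plate gave ATP-based viability (CC50).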

COc1ccc(-n2c(C(=O)NCc3ccc(OCC(N)=O)cc3)c3n(c2=O)CCN(C(=O)c2ccc(Br)c(Cl)c2)C3)cc1 [Example 205, N-[[4-(2-amino-2-oxo-ethoxy)phenyl]methyl]-7-(4-bromo-3-chloro-benzoyl)-2-(4-methoxyphenyl)-3-oxo-6,8-dihydro-5H-imidazo[1,5-a]pyrazine-1-carboxamide]
EC50: 500 to 5000 nM

COc1ccc(-n2c(C(=O)NCc3ccc(OC)cc3C3CC3)c3n(c2=O)CCN(C(=O)c2ccc(Br)c(Cl)c2)C3)cc1 [Example 210, 7-(4-bromo-3-chloro-benozyl)-N-[(2-cyclopropyl-4-methoxy-phenyl)methyl]-2-(4-methoxyphenyl)-3-oxo-6,8-dihydro-5H-imidazo[1,5-a]pyrazine-1-carboxamide]
EC50: 100 to 500 nM

COc1cc(CNC(=O)c2c3n(c(=O)n2-c2ccc(OC(C)C)cc2)CCN(C(=O)c2ccc(Br)c(Cl)c2)C3)ccc1C#N [Example 211, 7-(4-bromo-3-chloro-benzoyl)-N-[(4-cyano-3-methoxy-phenyl)methyl]-2-(4-isopropxoyphenyl)-3-oxo-6,8-dihydro-5H-imidazo[1,5-a]pyrazine-1-carboxamide]
EC50: 500 to 5000 nM

CC(C)Oc1ccc(-n2c(C(=O)NCc3ccc(C#N)cc3F)c3n(c2=O)CCN(C(=O)c2ccc(Br)c(Cl)c2)C3)cc1 [Example 212, 7-(4-bromo-3-chloro-benzoyl)-N-[(4-cyano-2-fluoro-phenyl)methyl]-2-(4-isopropoxyphenyl)-3-oxo-6,8-dihydro-5H-imidazo[1,5-a]pyrazine-1-carboxamide]
EC50: 100 to 500 nM

COc1ccc(-n2c(C(=O)NCc3ccc(CC(=O)O)cc3)c3n(c2=O)CCN(C(=O)c2ccc(Br)c(Cl)c2)C3)cc1 [Example 215, 2-[4-[[[7-(4-bromo-3-chloro-benzoyl)-2-(4-methoxyphenyl)-3-oxo-6,8-dihydro-5H-imidazo[1,5-a]pyrazine-1-carbonyl]amino]methyl]phenyl]acetic acid]
EC50: > 5000 nM

CC(C)Oc1ccc(-n2c(C(=O)NCc3ccccc3)c3n(c2=O)CCN(C(=O)/C=C/c2ccccc2Cl)C3)cc1 [Example 216, N-benzyl-7-[(E)-3-(2-chloropehnyl)prop-2-enoyl]-2-(4-isopropoxyphenyl)-3-oxo-6,8-dihydro-5H-imidazo[1,5-a]pyrazine-1-carboxamide]
EC50: > 5000 nM

CC(C)Oc1ccc(-n2c(C(=O)NCc3ccccc3)c3n(c2=O)CCN(C(=O)c2ccc(Br)c(C#N)c2)C3)cc1 [Example 217, N-benzyl-7-(4-bromo-3-cyano-benzoyl)-2-(4-isopropoxyphenyl)-3-oxo-6,8-dihydro-5H-imidazo[1,5-a]pyrazine-1-carboxamide]
EC50: 500 to 5000 nM

COc1ccc(CNC(=O)c2c3n(c(=O)n2-c2ccc(OC(C)C)cc2)CCN(C(=O)c2ccc(Br)c(Cl)c2)C3)c(F)c1 [Example 218, 7-(4-bromo-3-chloro-benzoyl)-N-[(2-fluoro-4-methoxy-phenyl)methyl]-2-(4-isopropoxyphenyl)-3-oxo-6,8-dihydro-5H-imdiazo[1,5-a]pyrazine-1-carboxamide]
EC50: < 100 nM

CC(C)Oc1ccc(-n2c(C(=O)NCc3ccc4[nH]cnc4c3)c3n(c2=O)CCN(C(=O)c2ccc(Br)c(Cl)c2)C3)cc1 [Example 219, N-(1H-benzimidazol-5-ylmethyl)-7-(4-bromo-3-chloro-benzoyl)-2-(4-isopropoxyphenyl)-3-oxo-6,8-dihdyro-5H-imidazo[1,5-a]pyrazine-1-carboxamide]
EC50: 500 to 5000 nM

CC(C)Oc1ccc(-n2c(C(=O)NCc3ccc4occc4c3)c3n(c2=O)CCN(C(=O)c2ccc(Br)c(Cl)c2)C3)cc1 [Example 220, N-(benzofuran-5-ylmethyl)-7-(4-bromo-3-chloro-benzoyl)-2-(4-isopropoxyphenyl)-3-oxo-6,8-dihydro-5H-imidazo[1,5-a]pyrazine-1-carboxamide]
EC50: > 5000 nM

CC(C)Oc1ccc(-n2c(C(=O)NCc3ccc(CO)cc3)c3n(c2=O)CCN(C(=O)c2ccc(Br)c(Cl)c2)C3)cc1 [Example 221, 7-(4-bromo-3-chloro-benzoyl)-N-[[4-(hydroxymethyl)phenyl]methyl]-2-(4-isopropoxyphenyl)-3-oxo-6,8-dihydro-5H-imidazo[1,5-a]pyrazine-1-carboxamide]
EC50: > 5000 nM

CC(C)Oc1ccc(-n2c(C(=O)NCc3ccccc3C(N)=O)c3n(c2=O)CCN(C(=O)c2ccc(Br)c(Cl)c2)C3)cc1 [Example 222, 7-(4-bromo-3-chloro-benozyl)-N-[(2-carbamoylphenyl)methyl]-2-(4-isopropoxyphenyl)-3-oxo-6,8-dihydro-5H-imidazo[1,5-a]pyrazine-1-carboxamide]
EC50: > 5000 nM

CC(C)Oc1ccc(-n2c(C(=O)NCc3ccccc3)c3n(c2=O)CCN(C(=O)c2ccc(Br)nc2)C3)cc1 [Example 223, N-benzyl-7-(6-bromopyridine-3-carbonyl)-2-(4-isopropoxyphenyl)-3-oxo-6,8-dihydro-5H-imidazo[1,5-a]pyrazine-1-carboxamide]
EC50: > 5000 nM

CC(C)Oc1ccc(-n2c(C(=O)NCc3ccccc3)c3n(c2=O)CCN(C(=O)c2cc4c(Cl)cccc4s2)C3)cc1 [Example 224, N-benzyl-7-(4-chlorobenzothiophene-2-carbonyl)-2-(4-isopropoxyphenyl)-3-oxo-6,8-dihydro-5H-imidazo[1,5-a]pyrazine-1-carboxamide]
EC50: > 5000 nM

CC(C)Oc1ccc(-n2c(C(=O)NCc3ccccc3)c3n(c2=O)CCN(C(=O)/C=C/c2cccc(Cl)c2Cl)C3)cc1 [Example 226, N-benzyl-7-[(E)-3-(2,3-dichlorophenyl)prop-2-enoyl]-2-(4-isopropoxyphenyl)-3-oxo-6,8-dihydro-5H-imidazo[1,5-a]pyrazine-1-carboxamide]
EC50: > 5000 nM

CC(C)Oc1ccc(-n2c(C(=O)NCc3ccc(S(C)(=O)=O)cc3)c3n(c2=O)CCN(C(=O)c2ccc(Br)c(Cl)c2)C3)cc1 [Example 227, 7-(4-bromo-3-chloro-benzoyl)-2-(4-isopropoxypehnyl)-N-[(4-methylsulfonylphenyl)methyl]-3-oxo-6,8-dihydro-5H-imidazo[1,5-a]pyrazine-1-carboxamide]
EC50: 500 to 5000 nM

COc1ccc(CNC(=O)c2c3n(c(=O)n2-c2ccc(OC(C)C)cc2)CCN(C(=O)c2ccc(Br)c(Cl)c2)C3)c(OC)c1 [Example 228, 7-(4-bromo-3-chloro-benzoyl)-N-[(2,4-dimethoxypehnyl)methyl]-2-(4-isopropoxyphenyl)-3-oxo-6,8-dihydro-5H-imidazo[1,5-a]pyrazine-1-carboxamide]
EC50: 100 to 500 nM

COc1ccc(CNC(=O)c2c3n(c(=O)n2-c2ccc(OCC(F)(F)F)cc2)CCN(C(=O)c2ccc(Br)c(Cl)c2)C3)c(OC)c1 [Example 229, 7-(4-bromo-3-chloro-benozyl)-N-[(2,4-dimethoxyphenyl)methyl]-3-oxo-2-[4-(2,2,2-trifluoroethoxy)phenyl]-6,8-dihydro-5H-imidazo[1,5-a]pyrazine-1-carboxamide]
EC50: < 100 nM

O=C(NCc1cccc2cccnc12)c1c2n(c(=O)n1-c1ccc(OCC(F)(F)F)cc1)CCN(C(=O)c1ccc(Br)c(Cl)c1)C2 [Example 230, 7-(4-bromo-3-chloro-benzoyl)-3-oxo-N-(8-quinolylmethyl)-2-[4-(2,2,2-triflurooethoxy)phenyl]-6,8-dihydro-5H-imidazo[1,5-a]pyrazine-1-carboxamide]
EC50: 100 to 500 nM

O=C(NCc1ccccc1-n1cccn1)c1c2n(c(=O)n1-c1ccc(OCC(F)(F)F)cc1)CCN(C(=O)c1ccc(Br)c(Cl)c1)C2 [Example 231, 7-(4-bromo-3-chloro-benzoyl)-3-oxo-N[(2-pyrazol-1-ylphenyl)methyl]-2-[4-(2,2,2-trifluoroethoxy)phenyl]-6,8-dihydro-5H-imidazo[1,5-a]pyrazine-1-carboxamide]
EC50: < 100 nM

CC(C)Oc1ccc(-n2c(C(=O)NCc3ccc(=O)n(C)c3)c3n(c2=O)CCN(C(=O)c2ccc(Br)c(Cl)c2)C3)cc1 [Example 232, 7-(4-bromo-3-chloro-benzoyl)-2-(4-isopropoxyphenyl)-N-[(1-methyl-6-oxo-3-pyridyl)methyl]-3-oxo-6,8-dihydro-5H-imidazo[1,5-a]pyrazine-1-carboxamide]
EC50: > 5000 nM

COc1cc(C#N)ccc1CNC(=O)c1c2n(c(=O)n1-c1ccc(OC(C)C)cc1)CCN(C(=O)c1ccc(Br)c(Cl)c1)C2 [Example 236, 7-(4-bromo-3-chloro-benzoyl)-N-[(4-cyano-2-methoxy-phenyl)methyl]-2-(4-isopropoxyphenyl)-3-oxo-6,8-dihydro-5H-imidazo[1,5-a]pyrazine-1-carboxamide]
EC50: 100 to 500 nM

O=C(c1ccc(Br)c(Cl)c1)N1CCn2c(c3n(c2=O)CC2(COC2)CN(Cc2ccccc2)C3=O)C1 [Example 239, 13-benzyl-4-(4-bromo-3-chloro-benzoyl)spiro[4,7,9,13-tetrazatricyclo[7.5.0.0 2,7]tetradec-1-ene-11,3′-oxetane]-8,14-dione]
EC50: 500 to 5000 nM

CC(C)Oc1ccc(-n2c(C(=O)NCc3ccccc3)c3n(c2=O)CCN(C(=O)/C=C/c2ccc(Cl)c(Cl)c2)C3)cc1 [Example 242, N-benzyl-7-[(E)-3-(3,4-dichlorophenyl)prop-2-enoyl]-2-(4-isopropoxyphenyl)-3-oxo-6,8-dihydro-5H-imidazo[1,5-a]pyrazine-1-carboxamide]
EC50: > 5000 nM

CC(C)Oc1ccc(-n2c(C(=O)NCc3ccc(C(F)F)cc3)c3n(c2=O)CCN(C(=O)c2ccc(Br)c(Cl)c2)C3)cc1 [Example 243, 7-(4-bromo-3-chloro-benzoyl)-N-[[4-(difluoromethyl)phenyl]methyl]-2-(4-isopropoxyphenyl)-3-oxo-6,8-dihydro-5H-imidazo[1,5-a]pyrazine-1-carboxamide]
EC50: 100 to 500 nM

COc1ccc(CNC(=O)c2c3n(c(=O)n2-c2ccc(OCC(F)(F)F)cc2)CCN(C(=O)c2ccc(Br)c(Cl)c2)C3)c(F)c1 [Example 244, 7-(4-bromo-3-chloro-benzoyl)-N-[(2-fluoro-4-methoxy-phenyl)methyl]-3-oxo-2-[4-(2,2,2-trifluoroethoxy)phenyl]-6,8-dihydro-5H-imidazo[1,5-a]pyrazine-1-carboxamide]
EC50: 100 to 500 nM
